Measurements reported in BindingDB's records for doi:10.7270/Q2M32T6M (Vanderbilt Screening Center for GPCRs, Ion Channels and …, 2009).

The molecules below were run against T1, Solute carrier family 12 member 5 (Homo sapiens, UniProt Q9H2X9) (assay: KCC2 modulator potency by thallium flux, dose response, cell-based, HEK293 KCC2, FluoZin-2 fluorescence (AID 1736)). Settings: not given.
T1 sequence (Q9H2X9 whole entry): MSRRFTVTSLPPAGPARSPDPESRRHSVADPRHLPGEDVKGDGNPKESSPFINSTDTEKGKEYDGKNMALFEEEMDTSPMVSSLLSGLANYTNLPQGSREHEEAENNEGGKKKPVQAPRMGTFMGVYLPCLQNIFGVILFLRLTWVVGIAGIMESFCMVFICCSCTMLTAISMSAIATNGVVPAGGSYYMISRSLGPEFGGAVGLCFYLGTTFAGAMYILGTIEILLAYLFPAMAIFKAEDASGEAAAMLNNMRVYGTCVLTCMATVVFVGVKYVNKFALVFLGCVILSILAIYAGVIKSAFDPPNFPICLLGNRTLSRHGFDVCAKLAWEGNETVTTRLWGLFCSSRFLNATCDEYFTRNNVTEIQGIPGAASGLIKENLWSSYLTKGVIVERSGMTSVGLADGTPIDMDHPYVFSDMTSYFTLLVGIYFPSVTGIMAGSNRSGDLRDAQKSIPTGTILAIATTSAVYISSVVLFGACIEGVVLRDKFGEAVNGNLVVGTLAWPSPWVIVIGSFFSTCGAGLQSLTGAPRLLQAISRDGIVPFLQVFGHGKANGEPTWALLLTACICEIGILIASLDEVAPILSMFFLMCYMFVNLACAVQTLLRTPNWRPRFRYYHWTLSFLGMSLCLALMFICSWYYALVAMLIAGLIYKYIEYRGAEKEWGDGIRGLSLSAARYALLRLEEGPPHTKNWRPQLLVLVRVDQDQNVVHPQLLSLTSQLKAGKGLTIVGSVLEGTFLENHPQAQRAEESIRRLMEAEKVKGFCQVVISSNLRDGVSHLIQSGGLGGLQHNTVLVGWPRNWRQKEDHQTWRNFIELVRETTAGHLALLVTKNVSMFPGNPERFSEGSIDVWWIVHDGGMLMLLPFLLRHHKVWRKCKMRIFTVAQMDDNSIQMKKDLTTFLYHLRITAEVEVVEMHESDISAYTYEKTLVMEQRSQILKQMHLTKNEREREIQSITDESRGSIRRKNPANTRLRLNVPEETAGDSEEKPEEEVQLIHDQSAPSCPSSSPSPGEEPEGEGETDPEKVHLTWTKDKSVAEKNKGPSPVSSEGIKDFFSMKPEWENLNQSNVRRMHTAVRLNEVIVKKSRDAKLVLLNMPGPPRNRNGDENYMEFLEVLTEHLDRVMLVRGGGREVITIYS

Row | Compound | EC50
1 | O=C(OCn1ncc(Cl)c(Cl)c1=O)c1ccc(F)cc1 [(4,5-dichloro-6-oxopyridazin-1-yl)methyl 4-fluorobenzoate] | 3.32 µM
2 | O=S(=O)(NCc1ccccc1)c1ccc(Cl)c(S(=O)(=O)NCc2ccccc2)c1 [1-N,3-N-dibenzyl-4-chlorobenzene-1,3-disulfonamide] | 1.7 µM
3 | COc1ccc(N(CC(=O)Nc2cccc(C)c2C)S(=O)(=O)c2c(C)n[nH]c2C)cc1 [N-(2,3-dimethylphenyl)-2-[(3,5-dimethyl-1H-pyrazol-4-yl)sulfonyl-(4-methoxyphenyl)amino]ethanamide] | 38.6 µM
4 | Cc1ccc2[nH]c3c(N4CCN(Cc5ccccc5)CC4)ncnc3c2c1 [8-methyl-4-[4-(phenylmethyl)-1-piperazinyl]-5H-pyrimido[5,4-b]indole] | 3.25 µM
5 | CC12CC3(C)CC(C)(C1)CC(C(=O)NC(=S)N1CCCC1)(C2)C3 [3,5,7-trimethyl-N-pyrrolidin-1-ylcarbothioyl-adamantane-1-carboxamide] | 0.541 µM
6 | CC(C)(C)NC(=O)C(c1ccncc1)N(Cc1ccco1)C(=O)c1ccc(-c2ccccc2)[nH]1 (centres undefined) [N-[2-(tert-butylamino)-2-oxo-1-pyridin-4-ylethyl]-N-(furan-2-ylmethyl)-5-phenyl-1H-pyrrole-2-carboxamide] | 19.1 µM
7 | CC1CCN(C(=O)CSc2ccc(-c3ccc(F)cc3)nn2)CC1 [2-[6-(4-Fluoro-phenyl)-pyridazin-3-ylsulfanyl]-1-(4-methyl-piperidin-1-yl)-ethanone] | 4.35 µM
8 | O=C(C1CCN(S(=O)(=O)c2cccs2)CC1)N1CCc2ccccc2C1 [3,4-dihydro-1H-isoquinolin-2-yl-(1-thiophen-2-ylsulfonyl-4-piperidinyl)methanone] | 2650 µM
9 | CCN(CC)S(=O)(=O)c1ccc(NC(=O)CSc2ncnc3ccccc23)cc1 [MLS000393282] | 3 µM
10 | O=C(CC(Cc1ccccc1)c1ccco1)NC1CCCCC1 (centres undefined) [MLS000556612] | 3.03 µM
11 | O=C(CSc1nnc(CNc2ccccc2)o1)N1CCCc2ccccc21 [1-(3,4-Dihydro-2H-quinolin-1-yl)-2-(5-phenylaminomethyl-[1,3,4]oxadiazol-2-ylsulfanyl)-ethanone] | 1730 µM
12 | CCCCCC(=O)Cc1cc(O)cc2c1C(=O)Oc1cc(O)c(C(=O)O)c(CCCCC)c1O2 [3,8-Dihydroxy-11-oxo-1-(2-oxo-heptyl)-6-pentyl-11H-dibenzo[b,e][1,4]dioxepine-7-carboxylic acid] | 8.19 µM
13 | Cc1ccc(-c2n[nH]c(=S)n2NC=CCc2ccccc2[N+](=O)[O-])cc1 | 1.28 µM
14 | COc1ccc(S(=O)(=O)N(C)CC(=O)N2CCN(Cc3ccccc3)CC2)cc1C [4-methoxy-N,3-dimethyl-N-[2-oxidanylidene-2-[4-(phenylmethyl)piperazin-1-yl]ethyl]benzenesulfonamide] | 2.26 µM
15 | CC(C)(C)NC(=O)C(c1cccs1)N(CC1CCCO1)C(=O)c1ccc(-c2ccccc2)[nH]1 (centres undefined) [N-[2-(tert-butylamino)-2-oxo-1-thiophen-2-ylethyl]-N-(2-oxolanylmethyl)-5-phenyl-1H-pyrrole-2-carboxamide] | 2.31 µM
16 | Cc1ccccc1-c1nc(CS(=O)(=O)CC(=O)NCc2ccccc2)c(C)o1 [2-[[5-methyl-2-(2-methylphenyl)-1,3-oxazol-4-yl]methylsulfonyl]-N-(phenylmethyl)ethanamide] | 110 µM
17 | Cc1ccc(S(=O)(=O)N(CCC(=O)O)Cc2ccc(Cl)cc2)cc1 [3-[(4-chlorobenzyl)-tosyl-amino]propionic acid] | 2.69 µM
18 | S=C(NCCc1ccccc1)NN=Cc1cccc(Cl)c1Cl [1-[(2,3-dichlorobenzylidene)amino]-3-phenethyl-thiourea] | 22.7 µM
19 | CC(=O)NC(C)C(=O)OCC(=O)c1ccc(-c2ccccc2)cc1 (centres undefined) [2-acetamidopropanoic acid [2-oxo-2-(4-phenylphenyl)ethyl] ester] | 13.7 µM

Other lines, results leading:

Row | EC50 | Compound
20 | 544 µM | O=C(NCc1nc(-c2ccccc2)cs1)c1ccccc1 [MLS000661971]
21 | 11.9 µM | COc1ccc(S(=O)(=O)N(CCc2ccccc2)CC(=O)O)cc1Cl [2-[(3-chloranyl-4-methoxy-phenyl)sulfonyl-(2-phenylethyl)amino]ethanoic acid]
22 | 9.24 µM | Cc1cccc(OCc2nnc(SCC(=O)c3cccs3)n2C)c1C [2-[5-(2,3-Dimethyl-phenoxymethyl)-4-methyl-4H-[1,2,4]triazol-3-ylsulfanyl]-1-thiophen-2-yl-ethanone]
23 | 1.56 µM | Cc1nonc1NC(=O)CSc1ccc(-c2ccccc2)nn1 [MLS000074514]
24 | 432 µM | Cc1ccccc1OCC(=O)NNC(=O)CCN1C(=O)c2ccccc2C1=O [3-(1,3-dioxo-2-isoindolyl)-N'-[2-(2-methylphenoxy)-1-oxoethyl]propanehydrazide]
25 | 0.128 µM | O=C(NN1C(=O)/C(=C/c2nc3ccccc3[nH]2)SC1=S)c1ccccc1Cl [N-{5-[1-(1H-Benzoimidazol-2-yl)-meth-(Z)-ylidene]-4-oxo-2-thioxo-thiazolidin-3-yl}-2-chloro-benzamide]
26 | 0.392 µM | CC(C)c1onc(C(=O)N2CCN(Cc3ccccc3)CC2)c1[N+](=O)[O-] [(4-benzylpiperazin-1-yl)-(4-nitro-5-propan-2-yl-1,2-oxazol-3-yl)methanone]
27 | 3 µM | CCc1cc(C(=O)N2CCCC(CNC(=O)c3ccc(-c4ccccc4)cc3)C2)no1 (centres undefined) [MLS000731765]
28 | 10800 µM | NC(=O)COc1ccccc1/C=C1/SC(=O)N(CC(=O)N2CCc3ccccc3C2)C1=O [2-[2-({3-[2-(3,4-dihydro-2(1H)-isoquinolinyl)-2-oxoethyl]-2,4-dioxo-1,3-thiazolidin-5-ylidene}methyl)phenoxy]acetamide]
29 | 10.8 µM | CCOC(=O)c1cc2c(ccn2C)n1CC(=O)N1CCC(Cc2ccccc2)CC1 [1-[2-(4-Benzyl-piperidin-1-yl)-2-oxo-ethyl]-4-methyl-1,4-dihydro-pyrrolo[3,2-b]pyrrole-2-carboxylic acid ethyl ester]
30 | 3.77 µM | Sc1nnc(CNc2cccc(Cl)c2)o1 [5-[(3-chloroanilino)methyl]-3H-1,3,4-oxadiazole-2-thione]
31 | 15.4 µM | Cc1ccc(CSCCNC(=O)c2ccc(C)cc2)cc1 [4-methyl-N-[2-[(4-methylbenzyl)thio]ethyl]benzamide]
32 | 2.75 µM | COc1cc(C=NN(C)c2ccccc2)ccc1O
33 | 0.156 µM | O=C(CN1C(=O)NC2(CCCC2)C1=O)Nc1nc(-c2ccc(F)cc2)cs1 [2-(2,4-diketo-1,3-diazaspiro[4.4]nonan-3-yl)-N-[4-(4-fluorophenyl)thiazol-2-yl]acetamide]
34 | 1.65 µM | O=C(CSc1ccccc1C(=O)NCc1ccccc1)NC1CCCCCCC1 [2-[2-(cyclooctylamino)-2-oxidanylidene-ethyl]sulfanyl-N-(phenylmethyl)benzamide]
35 | 350 µM | O=C(O)CC/C(=C\c1ccccc1[N+](=O)[O-])c1nc2ccccc2s1 [(E)-4-(1,3-benzothiazol-2-yl)-5-(2-nitrophenyl)-4-pentenoic acid]
36 | 3.12 µM | Sc1nnc(COc2ccc(Cl)cc2)o1 [5-(4-Chloro-phenoxymethyl)-3H-[1,3,4]oxadiazole-2-thione]
37 | 2.58 µM | c1ccc(-c2csc(N=NCc3ccco3)n2)cc1 [(2-furfurylideneamino)-(4-phenylthiazol-2-yl)amine]

Same assay, conditions: inactive by the depositor's call

Row | Compound | EC50
38 | Cc1ccccc1-c1nc(CS(=O)(=O)CC(=O)N2CCc3ccccc3C2)c(C)o1 [1-(3,4-dihydro-1H-isoquinolin-2-yl)-2-[[5-methyl-2-(2-methylphenyl)-1,3-oxazol-4-yl]methylsulfonyl]ethanone] | 22.1 µM
39 | O=C(CSc1nnc(CNc2ccccc2)o1)c1ccc2c(c1)OCCO2 [1-(2,3-Dihydro-benzo[1,4]dioxin-6-yl)-2-(5-phenylaminomethyl-[1,3,4]oxadiazol-2-ylsulfanyl)-ethanone] | 2.09 µM
40 | C[C@@H](C(=O)Nc1ccc2ccccc2c1)[C@@H]1C[C@@]1(C)[C@@H](NC(=O)c1cccnc1)c1ccccc1 [MLS000563527] | 16.9 µM

The remaining lines, values ahead:

Row | EC50 | Compound
41 | 3.13 µM | N=C1SCC(=O)N1c1ncc(Cc2cccc(Cl)c2)s1 [2-azanylidene-3-[5-[(3-chlorophenyl)methyl]-1,3-thiazol-2-yl]-1,3-thiazolidin-4-one]
42 | 4.51 µM | O=C(Nc1ccn(Cc2ccccc2)n1)c1cccc(F)c1 [3-fluoranyl-N-[1-(phenylmethyl)pyrazol-3-yl]benzamide]
43 | 40.9 µM | O=C(NCCCCc1ccccc1)C1CC(c2ccccc2C(F)(F)F)=NO1 (centres undefined) [MLS000561910]
44 | 2.87 µM | Cc1ccc(N(CC(=O)NCCSc2ccccn2)S(=O)(=O)c2ccc(F)cc2)cc1 [2-(N-(4-fluorophenyl)sulfonyl-4-methyl-anilino)-N-[2-(2-pyridylthio)ethyl]acetamide]
